Measured values: article PMC7126369, “Identification of a selective inhibitor of IDH2/R140Q enzyme that induces cellular differentiation in leukemia cells” (Cell Communication and Signaling : CCS, 2020)
Substitutions are numbered along the chain they refer to. Like-named read-outs stand apart in the source and are kept apart here.

Assays:
TF-1(IDH2/R140Q) cells [1] = experiment: GM-CSF-independent proliferation assay; type: cell-based; conditions: 3 μM, 7 days
Protocol: (§1) The cell proliferation was detected by CellTiter 96® AQueous One Solution Cell Proliferation Assay Kit (Promega) according to the protocol. Briefly, TF-1(WT) and TF-1(IDH2/R140Q) cells were cultured in complete growth medium that is supplemented with 2 ng/mL GM-CSF. Prior to the proliferation assay, the cells were washed three times with PBS to eliminate GM-CSF. These cells were transferred to 96 well plates (5000 cells per well), with each well containing 100 μL growth medium without GM-CSF, and treated with CP-17 (1 or 3 μM) for 7 days. Then 20 μL per well of CellTiter 96® AQueous One Solution Reagent were added to each well. The plate was incubated at 37 °C for 4 h in a humidified, 5% CO2 atmosphere, and then the absorbance at 490 nm was recorded using a 96-well plate reader. Three independent repetitive experiments were carried out and analyzed by Graphpad Prism 5.0. […] T-test was used to compare the difference significance with control group and the data meet the assumption of the test.

TF-1(WT) cells = experiment: GM-CSF-independent proliferation assay; type: cell-based; conditions: 3 μM, 7 days
Protocol: as §1

TF-1(IDH2/R140Q) cells [2] = experiment: D-2-HG assay (LC-MS) in cells; type: cell-based; conditions: 72 h, 3 days of treatment, read-out: IC50 of intracellular D-2-HG production
Protocol: (§2) TF-1(IDH2R140Q) cells were seeded in a 12-well plate at a density of 5 × 10^4/mL. The test compound was added in different concentration gradients (3000, 1000, 333.33, 111.11, 37.04, 12.35, 4.12, and 1.37 nM). The cells were collected after 3 days of treatment. The cell pellet was suspended in 100 μL 80% aqueous methanol solution, containing 1 μg/mL Phenacetin as the internal standard. The cell lysate was centrifuged at 13,000 rpm for 10 min. The precipitate was removed at 4 °C and stored in an − 80 °C refrigerator. Before injection, the cell lysate was centrifuged again at 13,000 rpm for 10 min. The supernatant was transferred into the liquid phase cannula for injection. The test instrument was a Q Exactive™ Plus-Orbitrap™ MS, Thermo Scientific benchtop quadrupole-orbitrap high resolution mass spectrometer. The column used was Waters™ ACQUITY™ UPLC HSS-T3–1.8 μm, […] × 100 mm (part No. 186003539). The mobile phase was: Phase A, 0.1% aqueous formic acid (chromatographically pure); and Phase B, acetonitrile (chromatographically pure). The gradients were set as 1% B for 1.5 min → 70% B for 0.5 min → 1% B for 1.5 min → 0% B. The column was re-equilibrated for 2 min between injections. A temperature of 40 °C was set for the column with a flow rate of 0.2 mL/min. […] D-2-HG and Phenacetin were monitored by mass transitions of m/z 147 → m/z 129 and m/z 178 → m/z 147, respectively. […]

IDH2/R140Q = target: T1, IDH2/R140Q (Homo sapiens, UniProt P48735, R140Q); experiment: Diaphorase/resazurin coupled NADPH depletion enzymatic assay, IDH2/R140Q homodimer; type: biochemical; conditions: read-out: IC50 for α-KG reduction
T1 construct: FLAG (C); purchased BPS Bioscience
T1 sequence (P48735 40-452 R140Q): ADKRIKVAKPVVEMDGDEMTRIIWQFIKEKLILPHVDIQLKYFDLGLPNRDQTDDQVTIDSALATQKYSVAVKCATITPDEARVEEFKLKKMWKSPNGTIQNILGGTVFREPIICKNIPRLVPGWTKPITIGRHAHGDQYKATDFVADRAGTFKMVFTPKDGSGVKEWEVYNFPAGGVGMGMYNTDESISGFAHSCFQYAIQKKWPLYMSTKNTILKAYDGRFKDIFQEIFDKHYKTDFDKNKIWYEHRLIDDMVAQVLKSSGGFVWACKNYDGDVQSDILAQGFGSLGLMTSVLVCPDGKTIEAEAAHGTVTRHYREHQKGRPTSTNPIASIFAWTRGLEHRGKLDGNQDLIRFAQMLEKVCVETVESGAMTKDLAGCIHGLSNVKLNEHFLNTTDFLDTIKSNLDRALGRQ
Protocol: (§3) The compounds were dissolved to a concentration of 20 mM in pure DMSO. Diaphorase/resazurin coupled NADPH deletion or production assays were used to measure the activity of IDH mutants or wild-type IDH (IDH/WT) enzymes. […] Afterwards, 20 μL of the gradient concentrations of compound dilution were added to this mixture and incubated at 25 °C for 1 h or 16 h. […] Further, 20 μL of 4X assay buffer containing 0.6 mM isocitrate was used for enzymatic reaction.

IDH1/WT = target: T2, IDH1/WT (Homo sapiens, UniProt O75874); experiment: Enzymatic assay, IDH1/WT; type: biochemical; conditions: incubation time 16 h, read-out: IC50 for isocitrate to α-KG
T2 construct: FLAG (C); purchased BPS Bioscience
Protocol: A mixture of the IDH1/WT (0.08 μg/mL) and NADP (50 μM) was prepared in the assay buffer [10 mM MgCl2, 150 mM NaCl, 20 mM Tris (pH 7.5), 2 mM β-mercaptoethanol, and 0.05% BSA], after which compound dilutions were added and incubated for 16 h at 25 °C. Other operations were referred to the assay of IDH2/WT.

TF-1(IDH2/R140Q) cells [3] = experiment: EPO-induced differentiation assay; type: cell-based; conditions: 1 μM, 7 days
Protocol: TF-1(WT) and TF-1(IDH2/R140Q) cells were washed three times by PBS to remove GM-CSF and treated with CP-17 (1 or 3 μM) and 5 ng/mL EPO for 7 days.
as §2, with “pure).” for “pure). The gradients were set as 1% B for 1.5 min → 70% B for 0.5 min → 1% B for 1.5 min → 0% B. The column was re-equilibrated for 2 min between injections. A temperature of 40 °C was set for the column with a flow rate of 0.2 mL/min.”

IDH1/R132H = target: T3, IDH1/R132H (Homo sapiens, UniProt O75874, R132H); experiment: Enzymatic assay, IDH1/R132H; type: biochemical; conditions: incubation time 16 h, read-out: IC50 for α-KG reduction
T3 construct: FLAG (C); purchased BPS Bioscience
Protocol: Analogously, a mixture of the IDH1/R132H enzyme (0.2 μg/mL) and NADPH (30 μM) was prepared in the assay buffer [10 mM MgCl2, 150 mM NaCl, 20 mM Tris-Cl (pH 7.5), 0.05% BSA, and 2 mM β-mercaptoethanol], after which compound dilutions were added and incubated for 16 h at 25 °C. The activity was measured using the same method as for IDH2/R140Q.

IDH2/WT = target: T4, IDH2/WT (Homo sapiens, UniProt P48735); experiment: Diaphorase/resazurin coupled NADPH production enzymatic assay, IDH2/WT; type: biochemical; conditions: incubation time 16 h, read-out: IC50 for isocitrate to α-KG
T4 construct: FLAG (C); purchased BPS Bioscience
T4 sequence (P48735 40-452): T1 sequence (P48735 40-452 R140Q) with Q101R
Protocol: as §3

TF-1(IDH2/R140Q) cells [4] = experiment: Histone methylation assay (western blot); type: cell-based; conditions: 1 and 3 μM, 7 days
Protocol: TF-1(WT) and TF-1(IDH2/R140Q) cells were treated with CP-17 (1 or 3 μM) in the presence of recombinant human GM-CSF for 7 days and then lysed and evaluated for the expression of H3K9me3, H3K4me3, H3K27me3, and H3 with specific antibodies by western blot. The total amount of histone H3 was used as the loading control. Three independent repetitive experiments were carried out.

[5] = tested on: AML patients carrying mutant IDH2; set-up: method as in PMID 29346478, PMID 29346477; conditions: patients responding to Enasidenib; cited from earlier work

T3 sequence (O75874 whole entry R132H): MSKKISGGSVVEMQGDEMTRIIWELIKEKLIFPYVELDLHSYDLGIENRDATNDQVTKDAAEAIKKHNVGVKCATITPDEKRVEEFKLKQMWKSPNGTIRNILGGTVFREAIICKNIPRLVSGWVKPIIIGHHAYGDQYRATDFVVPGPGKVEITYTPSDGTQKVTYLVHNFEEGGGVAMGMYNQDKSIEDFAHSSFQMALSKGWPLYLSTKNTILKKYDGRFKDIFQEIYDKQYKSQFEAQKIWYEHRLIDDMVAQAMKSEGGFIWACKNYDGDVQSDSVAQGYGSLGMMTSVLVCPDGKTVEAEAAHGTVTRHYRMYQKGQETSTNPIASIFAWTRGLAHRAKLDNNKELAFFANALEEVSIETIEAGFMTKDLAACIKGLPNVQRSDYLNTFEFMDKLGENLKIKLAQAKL
T2 sequence (O75874 whole entry): as the sequence (O75874 whole entry R132H) above, with H132R counted along it

| IC50 (TF-1(IDH2/R140Q) cells [2]) | IC50 (IDH2/R140Q; incubation time 1 h) | IC50 (IDH2/R140Q; incubation time 16 h) | IC50 (IDH1/WT) | IC50 (IDH1/R132H) | IC50 (IDH2/WT) | Compound | GM-CSF-independent growth (TF-1(IDH2/R140Q) cells [1]) | Proliferation (TF-1(WT) cells) | EPO-induced differentiation (color change, hemoglobin γ expression) (TF-1(IDH2/R140Q) cells [3]) | Histone methylation (H3K4me3, H3K9me3, H3K27me3) (TF-1(IDH2/R140Q) cells [4]) | Patients who develop differentiation syndrome [5] |
| --- | --- | --- | --- | --- | --- | --- | --- | --- | --- | --- | --- |
| 141 nM | 99.9 nM | 40.8 nM | > 5 µM | > 5 µM | 2270 nM | Cc1ccc(Cl)cc1NC(=O)Nc1cc(NC(=O)c2ccccc2)ccc1N1CCCC1 [CP-17, N-(3-(3-(5-chloro-2-methylphenyl)ureido)-4-(pyrrolidin-1-yl)phenyl)benzamide] | significantly inhibited | no obvious effect | restored the EPO-induced color change and hemoglobin γ expression | dose-dependent decrease in histone methylation | – |
| – | – | – | – | – | – | CC(C)(O)CNc1nc(Nc2ccnc(C(F)(F)F)c2)nc(-c2cccc(C(F)(F)F)n2)n1 [Enasidenib] | – | – | – | – | 11.7% |
